Experimental data taken from patent US11807644B2 (PMV Pharmaceuticals, Inc., priority 2020, dated 2023).

Target: T1, recombinant His-tag Y220C p53 DBD protein (Homo sapiens, UniProt P04637, Y220C)
T1 construct: recombinant His-tag Y220C p53 DBD protein (amino acids #˜94-312)
Test: In vitro DNA binding activity assay (TR-FRET): binding of His-tag Y220C p53 DBD to biotin-labeled consensus DNA
Format: biochemical
Conditions: SC150 = concentration to increase DNA binding by […], His-tag Y220C p53 DBD, biotin-labeled consensus DNA

| SMILES | Y220C SC150 (μM) |
| --- | --- |
| CN1CCC(Nc2cccc3c2cc(-c2nnc(CNC(=O)c4ccc5cn[nH]c5c4)s2)n3CC(F)(F)F)CC1 [Compound 69B, N-[(5-{4-[(1-methylpiperidin-4-yl)amino]-1-(2,2,2-trifluoroethyl)-1H-indol-2-yl}-1,3,4-thiadiazol-2-yl)methyl]-1H-indazole-6-carboxamide] | * (* = 0 μM ≤ SC150 < 0.1 μM) |
| CN1CC[C@@H](Nc2cccc3c2cc(-c2noc(CNC(=O)c4ccccc4)n2)n3CC(F)(F)F)[C@@H](F)C1 (racemic) [Compound 172B, (+/−)-N-{[3-(4-{[(3R,4S)-3-fluoro-1-methylpiperidin-4-yl]amino}-1-(2,2,2-trifluoroethyl)-1H-indol-2-yl)-1,2,4-oxadiazol-5-yl]methyl}benzamide] | * (* = 0 μM ≤ SC150 < 0.1 μM) |
| CNC(=O)NCc1nnc(-c2cc3c(NC4CCN(C)CC4)cccc3n2CC(F)(F)F)s1 [Compound 56B, 3-methyl-1-[(5-{4-[(1-methylpiperidin-4-yl)amino]-1-(2,2,2-trifluoroethyl)-1H-indol-2-yl}-1,3,4-thiadiazol-2-yl)methyl]urea] | ** (** = 0.1 μM ≤ SC150 < 0.5 μM) |
| CN1CC[C@@H](Nc2cccc3c2cc(-c2noc(CNC(=O)c4ccn(CCC(=O)O)c4)n2)n3CC(F)(F)F)[C@@H](F)C1 [Compound 248B, 3-[3-({[3-(4-{[(3S,4R)-3-fluoro-1-methylpiperidin-4-yl]amino}-1-(2,2,2-trifluoroethyl)-1H-indol-2-yl)-1,2,4-oxadiazol-5-yl]methyl}carbamoyl)-1H-pyrrol-1-yl]propanoic acid] | * (* = 0 μM ≤ SC150 < 0.1 μM) |
| CN1CC[C@H](Nc2cccc3c2cc(-c2nnc(CNC(=O)C4CCCC4)s2)n3CC(F)(F)F)[C@H](F)C1 (racemic) [Compound 29B, (+/−)-N-{[5-(4-{[(3R,4S)-3-fluoro-1-methylpiperidin-4-yl]amino}-1-(2,2,2-trifluoroethyl)-1H-indol-2-yl)-1,3,4-thiadiazol-2-yl]methyl}cyclopentanecarboxamide] | ** (** = 0.1 μM ≤ SC150 < 0.5 μM) |
| CN1CC[C@@H](Nc2cccc3c2cc(-c2noc(CNC(=O)c4ccn(C(C)(C)C)n4)n2)n3CC(F)(F)F)[C@@H](F)C1 [Compound 529B, 1-tert-butyl-N-{[3-(4-{[(3S,4R)-3-fluoro-1-methylpiperidin-4-yl]amino}-1-(2,2,2-trifluoroethyl)-1H-indol-2-yl)-1,2,4-oxadiazol-5-yl]methyl}-1H-pyrazole-3-carboxamide] | * (* = 0 μM ≤ SC150 < 0.1 μM) |
| COc1cccc(C(=O)NCc2nnc(-c3cc4c(NC5CCN(C)CC5)cccc4n3CC(F)(F)F)s2)c1 [Compound 64B, 3-methoxy-N-[(5-{4-[(1-methylpiperidin-4-yl)amino]-1-(2,2,2-trifluoroethyl)-1H-indol-2-yl}-1,3,4-thiadiazol-2-yl)methyl]benzamide] | * (* = 0 μM ≤ SC150 < 0.1 μM) |
| CC(C)(C)n1ccc(C(=O)NCc2nc(-c3cc4c(N[C@H]5CC[C@H](F)CC5)cccc4n3CC(F)(F)F)no2)c1 [Compound 354B, 1-tert-butyl-N-{[3-(4-{[(1r,4r)-4-fluorocyclohexyl]amino}-1-(2,2,2-trifluoroethyl)-1H-indol-2-yl)-1,2,4-oxadiazol-5-yl]methyl}-1H-pyrrole-3-carboxamide] | * (* = 0 μM ≤ SC150 < 0.1 μM) |
| CN1CC[C@@H](Nc2cccc3c2cc(-c2noc(CNC(=O)c4c[nH]c(C(C)(C)C)c4)n2)n3CC(F)(F)F)[C@@H](F)C1 [Compound 484B, 5-tert-butyl-N-{[3-(4-{1[(3S,4R)-3-fluoro-1-methylpiperidin-4-yl]amino}-1-(2,2,2-trifluoroethyl)-1H-indol-2-yl)-1,2,4-oxadiazol-5-yl]methyl}-1H-pyrrole-3-carboxamide] | * (* = 0 μM ≤ SC150 < 0.1 μM) |
| CN1CC[C@@H](Nc2cccc3c2cc(-c2noc(CNC(=O)c4cnn(C5CCC(F)(F)C5)c4)n2)n3CC(F)(F)F)[C@@H](F)C1 (stereo partly drawn) [Compound 344B, 1-(3,3-difluorocyclopentyl)-N-{[3-(4-{1[(3S,4R)-3-fluoro-1-methylpiperidin-4-yl]amino}-1-(2,2,2-trifluoroethyl)-1H-indol-2-yl)-1,2,4-oxadiazol-5-yl]methyl}-1H-pyrazole-4-carboxamide] | * (* = 0 μM ≤ SC150 < 0.1 μM) |
| CCN1CC[C@@H](Nc2cccc3c2cc(-c2noc(CNC(=O)c4cnn(C5CCOC5)c4)n2)n3CC(F)(F)F)[C@@H](F)C1 (stereo partly drawn) [Compound 314B, N-{[3-(4-{[(3S,4R)-1-ethyl-3-fluoropiperidin-4-yl]amino}-1-(2,2,2-trifluoroethyl)-1H-indol-2-yl)-1,2,4-oxadiazol-5-yl]methyl}-1-(oxolan-3-yl)-1H-pyrazole-4-carboxamide] | * (* = 0 μM ≤ SC150 < 0.1 μM) |
| CN1CC[C@@H](Nc2cccc3c2cc(-c2noc(C(=O)NCC4CCOCC4)n2)n3CC(F)(F)F)[C@@H](F)C1 [Compound 558B, 3-(4-{[(3S,4R)-3-fluoro-1-methylpiperidin-4-yl]amino}-1-(2,2,2-trifluoroethyl)-1H-indol-2-yl)-N-[(oxan-4-yl)methyl]-1,2,4-oxadiazole-5-carboxamide] | * (* = 0 μM ≤ SC150 < 0.1 μM) |
| COc1ccc(C(=O)NCc2nnc(-c3cc4c(NC5CCN(C)CC5)cccc4n3CC(F)(F)F)s2)cc1 [Compound 63B, 4-methoxy-N-[(5-{4-[(1-methylpiperidin-4-yl)amino]-1-(2,2,2-trifluoroethyl)-1H-indol-2-yl}-1,3,4-thiadiazol-2-yl)methyl]benzamide] | * (* = 0 μM ≤ SC150 < 0.1 μM) |
| CC(C)c1ncc(C(=O)NCc2nc(-c3cc4c(N[C@@H]5CCN(C)C[C@@H]5F)cccc4n3CC(F)(F)F)no2)s1 [Compound 431B, N-{[3-(4-{[(3S,4R)-3-fluoro-1-methylpiperidin-4-yl]amino}-1-(2,2,2-trifluoroethyl)-1H-indol-2-yl)-1,2,4-oxadiazol-5-yl]methyl}-2-(propan-2-yl)-1,3-thiazole-5-carboxamide] | * (* = 0 μM ≤ SC150 < 0.1 μM) |
| COCc1cc(C(=O)NCc2nc(-c3cc4c(N[C@@H]5CCN(C)C[C@@H]5F)cccc4n3CC(F)(F)F)no2)cc(C)n1 [Compound 551B, N-{[3-(4-{[(3S,4R)-3-fluoro-1-methylpiperidin-4-yl]amino}-1-(2,2,2-trifluoroethyl)-1H-indol-2-yl)-1,2,4-oxadiazol-5-yl]methyl}-2-(methoxymethyl)-6-methylpyridine-4-carboxamide] | * (* = 0 μM ≤ SC150 < 0.1 μM) |
| CN1CC[C@@H](Nc2cccc3c2cc(-c2noc(CNC(=O)[C@@H]4C[C@H]4c4cnn(C)c4)n2)n3CC(F)(F)F)[C@@H](F)C1 [Compound 225B, (1R,2R)-N-{[3-(4-{[(3S,4R)-3-fluoro-1-methylpiperidin-4-yl]amino}-1-(2,2,2-trifluoroethyl)-1H-indol-2-yl)-1,2,4-oxadiazol-5-yl]methyl}-2-(1-methyl-1H-pyrazol-4-yl)cyclopropane-1-carboxamide] | * (* = 0 μM ≤ SC150 < 0.1 μM) |
| CN1CCC(Nc2cccc3c2cc(-c2nnc(CNC(=O)c4cn[nH]c4)s2)n3CC(F)(F)F)CC1 [Compound 72B, N-[(5-{4-[(1-methylpiperidin-4-yl)amino]-1-(2,2,2-trifluoroethyl)-1H-indol-2-yl}-1,3,4-thiadiazol-2-yl)methyl]-1H-pyrazole-4-carboxamide] | * (* = 0 μM ≤ SC150 < 0.1 μM) |
| CN1CCC(Nc2cccc3c2cc(-c2cc(CNc4ccc(S(C)(=O)=O)cc4)[nH]n2)n3CC(F)(F)F)CC1 [Compound 22B, 2-(5-{[(4-methanesulfonylphenyl)amino]methyl}-1H-pyrazol-3-yl)-N-(1-methylpiperidin-4-yl)-1-(2,2,2-trifluoroethyl)-1H-indol-4-amine] | ** (** = 0.1 μM ≤ SC150 < 0.5 μM) |
| CN1CC[C@@H](Nc2cccc3c2cc(-c2noc(CNC(=O)c4ccc(N(C)C)cc4)n2)n3CC(F)(F)F)[C@@H](F)C1 [Compound 220B, 4-(dimethylamino)-N-{[3-(4-{[(3S,4R)-3-fluoro-1-methylpiperidin-4-yl]amino}-1-(2,2,2-trifluoroethyl)-1H-indol-2-yl)-1,2,4-oxadiazol-5-yl]methyl}benzamide] | * (* = 0 μM ≤ SC150 < 0.1 μM) |
| CN1CC[C@@H](Nc2cccc3c2cc(-c2noc(CNC(=O)c4csc(C5(CO)CC5)c4)n2)n3CC(F)(F)F)[C@@H](F)C1 [Compound 487B, N-{[3-(4-{[(3S,4R)-3-fluoro-1-methylpiperidin-4-yl]amino}-1-(2,2,2-trifluoroethyl)-1H-indol-2-yl)-1,2,4-oxadiazol-5-yl]methyl}-5-[1-(hydroxymethyl)cyclopropyl]thiophene-3-carboxamide] | * (* = 0 μM ≤ SC150 < 0.1 μM) |
| CN1CCC(Nc2cccc3c2cc(-c2nnc(CNC(=O)c4ccccc4F)s2)n3CC(F)(F)F)CC1 [Compound 50B, 2-fluoro-N-[(5-{4-[(1-methylpiperidin-4-yl)amino]-1-(2,2,2-trifluoroethyl)-1H-indol-2-yl}-1,3,4-thiadiazol-2-yl)methyl]benzamide] | ** (** = 0.1 μM ≤ SC150 < 0.5 μM) |
| CCN1CC[C@H](Nc2cccc3c2cc(-c2noc(CNC(=O)c4ccn(C(C)(C)C)c4)n2)n3CC(F)(F)F)[C@H](F)C1 [Compound 299B, 1-tert-butyl-N-{[3-(4-{[(3R,4S)-1-ethyl-3-fluoropiperidin-4-yl]amino}-1-(2,2,2-trifluoroethyl)-1H-indol-2-yl)-1,2,4-oxadiazol-5-yl]methyl}-1H-pyrrole-3-carboxamide] | * (* = 0 μM ≤ SC150 < 0.1 μM) |
| COC(C)(C)c1ccc(C(=O)NCc2nc(-c3cc4c(N[C@H]5CCNC[C@H]5F)cccc4n3CC(F)(F)F)no2)s1 [Compound 479B, N-{[3-(4-{[(3R,4S)-3-fluoropiperidin-4-yl]amino}-1-(2,2,2-trifluoroethyl)-1H-indol-2-yl)-1,2,4-oxadiazol-5-yl]methyl}-5-(2-methoxypropan-2-yl)thiophene-2-carboxamide] | * (* = 0 μM ≤ SC150 < 0.1 μM) |
